Results published in patent publication US20100144543A1, “Epigenetic silencing of tumor suppressor genes” (The Salk Institute for Biological Studies, priority 2008, published 2010).
Numbered stars: 1 amine (or outer) side, 2 acyl side, 3 side chain; on linkers, the order of the positions; unused ones are H or OH. Bridge positions count the residues as written; N and C are the ends. Square brackets hold non-standard residues; d marks the D form. Peptide text beside a SMILES is read from it. I, II: the chains in the order shown. Actinocin(9to1) = Cc1c2oc3c(C)ccc(C(=O)[*:1])c3nc-2c(C(=O)[*:2])c(N)c1=O; NMeV = CN[C@H](C(=O)O)C(C)C; Sar = CNCC(=O)O

Assays:
Assay type in all cases: cell-based, human
CTCF = assay: PARlation status of CTCF, IP with anti-PAR antibody; details: MDA-MB-435 cells, treated with 3-ABA for 24 hours
Description: As described above, CTCF may be important for maintaining an active p16 gene. To further investigate possible CTCF defects that may impact its function in p16-silenced T47D breast cancer cells, we examined its post-translational modifications and association with several known protein interaction partners. […] In addition, western blots were performed to determine the protein levels of CTCF and putative interacting partners in MDA-MB-435 and T47D cells (FIG. 4B). […] Moreover, PARP-1 and Nucleolin appear to associate with CTCF in a mutually exclusive manner, with Nucleolin being present in CTCF complexes only in p16 expressing cells. To explore this further, we examined the PARlation status of CTCF in each cell type using an antibody that recognizes ADP-ribose polymers (PAR). Unexpectedly, we found PARlation associated with both CTCF and Nucleolin in p16-expressing MDA-MB-435 cells but not in p16-silenced TD47 cells (FIG. 4D, upper panels). […] Inputs are equal to 2.5% starting material.
2 mg of whole cell lysates were diluted in IP buffer with 0.5% Triton X-100. Protein mixes were pre-cleared for 1-2 hours with protein G Sepharose, after which the beads were removed and CTCF (Upstate) or anto-phosphotyrosine (Upstate) antibody added overnight at 4° C. to capture complexes. Complexes were recovered with protein G Sepharose, washed 4 times in IP buffer and subsequently analyzed by SDS-PAGE.

RASSF1A [1] = assay: qPCR expression analysis of CTCF target gene RASSF1A upon inhibition of PARP activity; details: MDA-MB-435 cells, 24 hours, 5 mM 3-ABA, normalized to c-Myc
Description: (§1) Next, we examined whether PARlation of target proteins impacts the expression of CTCF-regulated tumor suppressor genes. To achieve this, we perturbed cellular PARlation activity in p16-expressing cells by two approaches: first, incubation with the broad-spectrum PARP inhibitor 3-ABA; and second, shRNA-mediated ablation of PARP-1. […] Results are normalized to c-Myc levels. Error bars represent ±standard deviation.
(§2) PARP-1 knockdown was achieved using the MISSION™ Lentiviral shRNA system from Sigma. Lentiviral particles were packaged in HEK293T cells, with virus collected 24 hours post-transfection. Cells infected with shRNA-containing virus and polybrene were selected using puromycin at 72 hours post infection.

p16 [2] = assay: qPCR expression analysis of CTCF target gene p16 upon inhibition of PARP activity; details: MDA-MB-435 cells, 24 hours, 5 mM 3-ABA, normalized to c-Myc
Description: as §1, §2

RASSF1A [3] = assay: Inhibition of transcription, RT-PCR of RASSF1A; details: MDA-MB-435 cells, 24 hours, 2.5 μg/ml Actinomycin D or 1 μM Flavopiridol
Text: (§3) CTCF is a ubiquitous, multifunctional protein that has a critical role in organizing distinct chromosomal domains through boundary/insulator formation (Filippova et al. (2005) “Boundaries between chromosomal domains of X inactivation and escape bind CTCF and lack CpG methylation during early development.” Dev Cell 8: 31-42; Ishihara et al. (2006) “CTCF-dependent chromatin insulator is linked to epigenetic remodeling.” Mol Cell 23: 733-742; Splinter et al. (2006) “CTCF mediates long-range chromatin looping and local histone modification in the beta-globin locus.” Genes Dev 20: 2349-2354) and in repressing or activating transcription. Because we saw a pronounced change in chromatin structure upstream of the p16 gene when active or silenced (FIG. 1), we explored the possibility that CTCF can associate within this region. […] Yet, we detected CTCF binding at a well-characterized target gene, c-Myc, in both p16-expressing and non-expressing cell types. […] CTCF was immunoprecipitated and analyzed for association with the p16^INK4a and RASSF1A gene. […]
(§4) MDA-MB-435 cells were treated with Flavopiridol (Sigma) or Actinomycin D (Sigma) at 1 μM and 2.5 μg/ml, respectively, for 24 hours. At this time cells were harvested and analyzed for gene expression and CTCF binding.

p16 [4] = assay: Inhibition of transcription, RT-PCR of p16; details: MDA-MB-435 cells, 24 hours, 2.5 μg/ml Actinomycin D or 1 μM Flavopiridol
Text: as §3, §4

p16 gene = assay: p16 mRNA induction after AZA treatment (RT-PCR, qPCR); details: T47D cells treated with both AZA and Trichostatin A
Text: The p16 tumor suppressor gene is commonly silenced in numerous types of human cancers and remains a relevant therapeutic target of wide interest. One method that is extensively employed to restore p16 expression, both clinically and in vitro, is treatment of cancer cells with hypomethylating-nucleoside analogues such as 5′AZA-2′-deoxycytidine (AZA) (Otterson et al. (1995) “CDKN2 gene silencing in lung cancer by DNA hypermethylation and kinetics of p16INK4 protein induction by 5-aza 2′ deoxycytidine.” Oncogene 11: 1211-1216; Schrump et al. (2006) “Phase I study of decitabine-mediated gene expression in patients with cancers involving the lungs, esophagus, or pleura.” Clin Cancer Res 12: 5777-5785), which reverses DNA methylation. We reasoned that treatment of cells with AZA might also restore CTCF binding at the p16 upstream promoter through one of two mechanisms. First, CTCF is known to bind DNA in a methylation-sensitive fashion (Hark et al. (2000) “CTCF mediates methylation-sensitive enhancer-blocking activity at the H19/Igf2 locus.” Nature 405: 486-489); thus, demethylation of the p16 locus might allow CTCF to reassociate. […]

Row | Structure (SMILES) | RASSF1A transcription (RASSF1A [3]) | p16 transcription (p16 [4]) | other results
1 | NC(=O)c1cccc(N)c1 [3-ABA, 3-Aminobenzamide] |  |  | PARlation associated with CTCF and Nucleolin (CTCF): inhibited; RASSF1A mRNA levels (RASSF1A [1]): dramatic decrease; p16 mRNA levels (p16 [2]): significant reduction
2 | Cc1c2oc3c(C)ccc(C(=O)N[C@@H]4C(=O)N[C@H](C(C)C)C(=O)N5CCC[C@H]5C(=O)N(C)CC(=O)N(C)[C@@H](C(C)C)C(=O)O[C@@H]4C)c3nc-2c(C(=O)N[C@@H]2C(=O)N[C@H](C(C)C)C(=O)N3CCC[C@H]3C(=O)N(C)CC(=O)N(C)[C@@H](C(C)C)C(=O)O[C@@H]2C)c(N)c1=O [Actinomycin D] (I: T[dV]P[Sar][NMeV] / II: T[dV]P[Sar][NMeV]; ester I:1-I:C, II:1-II:C; linker I:N-II:N via Actinocin(9to1)) | inhibition | inhibition | 
3 | CN1CC[C@H](c2c(O)cc(O)c3c(=O)cc(-c4ccccc4Cl)oc23)[C@H](O)C1 [Flavopiridol] | inhibition | inhibition | 
4 | CC(/C=C/C(=O)NO)=C\[C@@H](C)C(=O)c1ccc(N(C)C)cc1 [Trichostatin A] |  |  | synergistic p16 gene reactivation (p16 gene): No synergistic p16 gene reactivation
